{"source": "paper PMC7190597", "about": "“Characterisation of four hotdog-fold thioesterases for their implementation in a novel organic acid production system” (Applied Microbiology and Biotechnology, 2020)", "key": {"[1]": {"target": "T1, PA2801 (Pseudomonas aeruginosa, UniProt Q9I042)", "T1 construct": "full-length in pET29a, expressed in E. coli BL21(DE3), clarified lysate", "T1 sequence (Q9I042 1-134)": "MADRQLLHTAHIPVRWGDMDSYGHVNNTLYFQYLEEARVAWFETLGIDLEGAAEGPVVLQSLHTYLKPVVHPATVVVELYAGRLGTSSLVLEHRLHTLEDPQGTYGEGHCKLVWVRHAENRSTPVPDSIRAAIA", "experiment": "DTNB assay on clarified lysate, empty-vector lysate control", "format": "biochemical", "details": "0.2 mM substrate, 100 mM triethanolamine pH 8, 25 °C, 0.4 mM DTNB"}, "[2]": {"target": "T2, YbdB (Escherichia coli, UniProt P0A8Y8)", "T2 construct": "gene entH; full-length in pET29a, expressed in E. coli BL21(DE3), clarified lysate", "T2 sequence (P0A8Y8 1-137)": "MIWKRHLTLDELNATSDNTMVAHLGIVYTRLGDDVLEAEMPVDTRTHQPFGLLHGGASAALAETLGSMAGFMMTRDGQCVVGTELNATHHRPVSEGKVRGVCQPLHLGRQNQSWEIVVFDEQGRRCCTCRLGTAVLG", "experiment": "DTNB assay on clarified lysate, empty-vector lysate control", "format": "biochemical", "details": "0.2 mM substrate, 100 mM triethanolamine pH 8, 25 °C, 0.4 mM DTNB"}}}
{"smiles": "CC(O)CC(=O)SCCNC(=O)CCNC(=O)[C@H](O)C(C)(C)COP(=O)(O)OP(=O)(O)OC[C@H]1O[C@@H](n2cnc3c(N)ncnc32)[C@H](O)[C@@H]1OP(=O)(O)O", "note": "(mixture of isomers) [DLBH CoA, DL-β-hydroxybutyryl CoA]", "values": [{"measurement": "DTNB assay on clarified lysate, empty-vector lysate control", "setting": "[1]", "result": "PA2801 was found to have activity towards the aliphatic CoA esters: DLBH CoA"}]}
{"smiles": "CCCCCCCCCCCCCCCCC(=O)SCCNC(=O)CCNC(=O)[C@H](O)C(C)(C)COP(=O)(O)OP(=O)(O)OC[C@H]1O[C@@H](n2cnc3c(N)ncnc32)[C@H](O)[C@@H]1OP(=O)(O)O", "note": "[nHD CoA, n-heptadecanoyl CoA]", "values": [{"measurement": "DTNB assay on clarified lysate, empty-vector lysate control", "setting": "[2]", "result": "YbdB was found to only have activity towards Bz CoA and nHD CoA"}]}
{"smiles": "CC(C)(COP(=O)(O)OP(=O)(O)OC[C@H]1O[C@@H](n2cnc3c(N)ncnc32)[C@H](O)[C@@H]1OP(=O)(O)O)[C@@H](O)C(=O)NCCC(=O)NCCSC(=O)C1CCCCC1", "note": "[CHC CoA, cyclohexanecarboxylic acid coenzyme A]", "values": [{"measurement": "DTNB assay on clarified lysate, empty-vector lysate control", "setting": "[1]", "result": "despite activity being found with CHC CoA, no activity was found with CHC-NAC"}]}
{"smiles": "CC(C)(COP(=O)(O)OP(=O)(O)OC[C@H]1O[C@@H](n2cnc3c(N)ncnc32)[C@H](O)[C@@H]1OP(=O)(O)O)[C@@H](O)C(=O)NCCC(=O)NCCSC(=O)c1ccccc1", "note": "[Bz CoA, Benzoyl CoA]", "values": [{"measurement": "DTNB assay on clarified lysate, empty-vector lysate control", "setting": "[2]", "result": "YbdB was found to only have activity towards Bz CoA and nHD CoA"}]}
